# Where two headings read alike, the source gives them in different places.
# Key:
# human TLR7 = biological target: T1, human TLR7 (Homo sapiens, UniProt Q9NYK1); test: HEK-Blue hTLR7 SEAP reporter gene inhibition assay; type: cell-based
# T1 sequence (Q9NYK1 27-1049): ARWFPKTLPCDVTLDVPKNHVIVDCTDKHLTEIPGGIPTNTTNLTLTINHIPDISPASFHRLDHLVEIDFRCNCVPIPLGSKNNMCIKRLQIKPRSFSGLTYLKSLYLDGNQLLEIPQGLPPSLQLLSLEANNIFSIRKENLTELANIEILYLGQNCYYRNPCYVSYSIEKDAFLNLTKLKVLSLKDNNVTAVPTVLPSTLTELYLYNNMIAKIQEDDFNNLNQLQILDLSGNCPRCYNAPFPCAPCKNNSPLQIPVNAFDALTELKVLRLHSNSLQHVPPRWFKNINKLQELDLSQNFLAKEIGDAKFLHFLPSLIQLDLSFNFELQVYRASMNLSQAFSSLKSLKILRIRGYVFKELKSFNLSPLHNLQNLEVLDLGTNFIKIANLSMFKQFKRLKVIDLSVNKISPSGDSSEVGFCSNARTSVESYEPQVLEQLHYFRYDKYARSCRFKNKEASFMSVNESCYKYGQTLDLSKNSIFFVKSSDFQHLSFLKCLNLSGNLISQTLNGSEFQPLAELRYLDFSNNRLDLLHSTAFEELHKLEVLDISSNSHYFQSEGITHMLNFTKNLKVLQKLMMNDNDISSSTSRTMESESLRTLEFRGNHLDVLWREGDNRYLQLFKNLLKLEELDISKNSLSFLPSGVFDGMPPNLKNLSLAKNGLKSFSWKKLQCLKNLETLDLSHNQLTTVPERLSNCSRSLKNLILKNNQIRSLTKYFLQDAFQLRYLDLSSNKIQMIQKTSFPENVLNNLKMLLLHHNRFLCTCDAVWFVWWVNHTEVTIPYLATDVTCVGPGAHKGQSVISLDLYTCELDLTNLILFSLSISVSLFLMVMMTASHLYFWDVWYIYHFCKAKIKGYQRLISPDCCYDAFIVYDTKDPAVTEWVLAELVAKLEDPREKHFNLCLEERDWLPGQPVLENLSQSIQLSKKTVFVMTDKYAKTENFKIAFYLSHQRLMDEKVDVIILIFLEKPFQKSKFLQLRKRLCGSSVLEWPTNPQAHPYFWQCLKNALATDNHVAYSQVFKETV
# Description: HEK-Blue cells with stable expression of human TLR7 or TLR8 were used in the evaluation of inhibitory activity of compounds in the present invention against TLR7 or TLR8, by using its ability to induce the SEAP reporting gene under the control of the fusion of IFN-β minimum promoters into five NF-κB and ap-1 binding sites, as follows: hTLR7 HEK-Blue cells (Invivogen, 80, 000 cells per well) or hTLR8 HEK-Blue cells (60, 000 cells per well) were added to a 96-well cell culture plate. A solution of the testing compounds were added to each well, with the final concentration of tested compounds in the medium ranged from 0.001 to 36 µM and the culture was incubated for 15 minutes. M5049 was used as positive controls in the testing.
# Then a TLR7 ligand (Gardiquimod, purchased from MedChemExpress, with final concentration of ligand in cell culture medium kept at 10 µM) or a TLR8 ligand (purchased from MedChemExpress with final concentration in cell culture media at 10 µM) and the culture was incubated for 20 hours. According to the manufacturer's instructions, a HEK-Blue reagent Quanti-blue (Invivogen) was used to detect the SEAP levels in cell cultures. The half […] concentration or IC50 was calculated by using GraphPad Prism. […] Table 1: Activities of examples in this invention to hTLR7/8 in HEK-Blue Cells
# human TLR8 = biological target: T2, human TLR8 (Homo sapiens, UniProt Q9NR97); test: HEK-Blue hTLR8 SEAP reporter gene inhibition assay; type: cell-based
# T2 construct: expressed in transfected cells
# T2 sequence (Q9NR97 27-1041): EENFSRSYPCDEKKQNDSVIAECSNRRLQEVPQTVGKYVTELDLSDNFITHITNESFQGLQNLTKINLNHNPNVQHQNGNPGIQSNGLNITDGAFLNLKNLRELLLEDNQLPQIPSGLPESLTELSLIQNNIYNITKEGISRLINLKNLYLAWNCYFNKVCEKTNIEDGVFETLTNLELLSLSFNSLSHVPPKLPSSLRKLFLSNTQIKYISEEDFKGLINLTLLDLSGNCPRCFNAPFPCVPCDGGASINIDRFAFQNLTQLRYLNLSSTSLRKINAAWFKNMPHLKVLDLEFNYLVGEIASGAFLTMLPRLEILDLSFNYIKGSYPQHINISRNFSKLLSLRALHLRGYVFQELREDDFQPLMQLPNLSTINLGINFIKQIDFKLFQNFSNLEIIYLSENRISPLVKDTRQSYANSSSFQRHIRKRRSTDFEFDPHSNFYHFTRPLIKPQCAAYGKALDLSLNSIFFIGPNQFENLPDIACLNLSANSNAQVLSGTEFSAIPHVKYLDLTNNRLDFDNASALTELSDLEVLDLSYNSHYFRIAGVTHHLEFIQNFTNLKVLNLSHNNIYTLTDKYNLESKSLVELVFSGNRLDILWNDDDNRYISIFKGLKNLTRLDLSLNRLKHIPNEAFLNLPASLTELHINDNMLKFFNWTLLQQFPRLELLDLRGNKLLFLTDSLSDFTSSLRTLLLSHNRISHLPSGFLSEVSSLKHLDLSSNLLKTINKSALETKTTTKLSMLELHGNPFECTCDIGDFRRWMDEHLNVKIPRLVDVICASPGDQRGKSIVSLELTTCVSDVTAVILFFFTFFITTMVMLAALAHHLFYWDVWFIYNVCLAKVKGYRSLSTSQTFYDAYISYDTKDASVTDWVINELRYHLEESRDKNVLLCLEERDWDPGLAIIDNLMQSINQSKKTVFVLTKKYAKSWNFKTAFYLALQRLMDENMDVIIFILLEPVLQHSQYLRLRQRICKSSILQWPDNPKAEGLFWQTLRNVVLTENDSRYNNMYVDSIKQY
# Outline: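 Cells seeded (TLR7 line 80,000, TLR8 line 60,000 per well), compound added at 0.001–36 µM final for 15 min, then agonist at 10 µM final (Gardiquimod for TLR7) for 20 h. SEAP measured with Quanti-Blue; IC50 fitted.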
# [1] = hTLR7 HEK-Blue cells, TLR7 ligand Gardiquimod 10 µM, 20 hours, SEAP by Quanti-blue, class symbols, read-out: HEK-Blue hTLR7 IC50
# [2] = hTLR8 HEK-Blue cells, TLR8 ligand 10 µM, 20 hours, SEAP by Quanti-blue, class symbols, read-out: HEK-Blue hTLR8 IC50
compound,measurement,setting,value
"C[C@@H]1CN(c2ccc(C#N)n3ncc(F)c23)Cc2c3c(nn21)CN(CC(=O)N1CCC(F)(F)C1)[C@@H](C)C3 [Example I-152, 4-((4R,9S)-8-(2-(3,3-difluoropyrrolidin-1-yl)-2-oxoethyl)-4,9-dimethyl-3,4,7,8,9,10-hexahydropyrido[3',4':3,4]pyrazolo[1,5-a]pyrazin-2(1H)-yl)-3-fluoropyrazolo[1,5-a]pyridine-7-carbonitrile]",IC50,human TLR7; [1],< 0.05 µM
same,IC50,human TLR8; [2],> 0.1 µM
"C[C@@H]1Cc2c(nn3c2CN(c2ccc(C#N)n4ncc(F)c24)C[C@H]3C)[C@H](C)N1 [Example I-59, 3-Fluoro-4-((4R,7S,9R)-4,7,9-trimethyl-3,4,7,8,9,10-hexahydropyrido[3',4':3,4]pyrazolo[1,5-a]pyrazin-2(1H)-yl)pyrazolo[1,5-a]pyridine-7-carbonitrile]",IC50,human TLR7; [1],< 0.05 µM
same,IC50,human TLR8; [2],> 0.1 µM
"C[C@@H]1CN(c2ccc(C#N)n3ncc(F)c23)Cc2c3c(nn21)CNC(c1ccn[nH]1)C3 (stereo partly drawn) [Example I-68, 3-Fluoro-4-((4R)-4-methyl-9-(1H-pyrazol-5-yl)-3,4,7,8,9,10-hexahydropyrido[3',4':3,4]pyrazolo[1,5-a]pyrazin-2(1H)-yl)pyrazolo[1,5-a]pyridine-7-carbonitrile]",IC50,human TLR7; [1],> 0.05 µM
same,IC50,human TLR8; [2],< 0.1 µM
"C[C@@H]1CN(c2ccc(C#N)n3ncc(F)c23)Cc2c3c(nn21)CN(C[C@@](C)(O)CO)[C@@H](C)C3 [Example I-224, 4-((4R,9S)-8-((R)-2,3-dihydroxy-2-methylpropyl)-4,9-dimethyl-3,4,7,8,9,10-hexahydropyrido[3',4':3,4]pyrazolo[1,5-a]pyrazin-2(1H)-yl)-3-fluoropyrazolo[1,5-a]pyridine-7-carbonitrile]",IC50,human TLR7; [1],< 0.05 µM
same,IC50,human TLR8; [2],< 0.1 µM
"C[C@@H]1CN(c2ccc(C#N)n3ncc(F)c23)Cc2c3c(nn21)CN(C1CCC1O)[C@@H](C)C3 (stereo partly drawn) [Example I-174, 3-Fluoro-4-((4R,9S)-8-(2-hydroxycyclobutyl)-4,9-dimethyl-3,4,7,8,9,10-hexahydropyrido[3',4':3,4]pyrazolo[1,5-a]pyrazin-2(1H)-yl)pyrazolo[1,5-a]pyridine-7-carbonitrile]",IC50,human TLR7; [1],< 0.05 µM
same,IC50,human TLR8; [2],> 0.1 µM
"C[C@@H]1CN(c2ccc(C#N)n3ncc(F)c23)Cc2c3c(nn21)CC(N)CC3 (single isomer, unassigned) [Example I-20a]",IC50,human TLR7; [1],< 0.05 µM
same,IC50,human TLR8; [2],< 0.1 µM
"CC1CNCc2c1nn1c2CN(c2ccc(C#N)n3ncc(F)c23)C[C@H]1C (stereo partly drawn) [Example I-12, 4-((7R)-4,7-dimethyl-1,3,4,7,8,10-hexahydropyrido[4',3':3,4]pyrazolo[1,5-a]pyrazin-9(2H)-yl)-3-fluoropyrazolo[1,5-a]pyridine-7-carbonitrile]",IC50,human TLR7; [1],< 0.05 µM
same,IC50,human TLR8; [2],< 0.1 µM
C[C@@H]1CN(c2ccc(C#N)n3ncc(F)c23)Cc2c3c(nn21)CN(C1CC2(COC2)C1)[C@@H](C)C3 [Example I-135],IC50,human TLR7; HEK-Blue hTLR7 IC50 (µM),< 0.05 µM
same,IC50,human TLR8; HEK-Blue hTLR8 IC50 (µM),< 0.1 µM
"C[C@@H]1CN(c2ccc(C#N)n3ncc(F)c23)Cc2c3c(nn21)CNCC3 [Example I-5, (R)-3-fluoro-4-(4-methyl-3,4,7,8,9,10-hexahydropyrido[3',4':3,4]pyrazolo[1,5-a]pyrazin-2(1H)-yl)pyrazolo[1,5-a]pyridine-7-carbonitrile]",IC50,human TLR7; [1],< 0.05 µM
same,IC50,human TLR8; [2],< 0.1 µM
"C[C@@H]1CN(c2ccc(C#N)n3ncc(F)c23)Cc2c3c(nn21)C(CO)NCC3 (stereo partly drawn) [Example I-33, 3-Fluoro-4-((4R)-7-(hydroxymethyl)-4-methyl-3,4,7,8,9,10-hexahydropyrido[3',4':3,4]pyrazolo[1,5-a]pyrazin-2(1H)-yl)pyrazolo[1,5-a]pyridine-7-carbonitrile]",IC50,human TLR7; [1],> 0.05 µM
same,IC50,human TLR8; [2],< 0.1 µM
"C[C@@H]1CN(c2ccc(C#N)n3ncc(F)c23)Cc2c3c(nn21)CN(CC1(N)COC1)[C@@H](C)C3 [Example I-184, 4-((4R,9S)-8-((3-aminooxetan-3-yl)methyl)-4,9-dimethyl-3,4,7,8,9,10-hexahydropyrido[3',4':3,4]pyrazolo[1,5-a]pyrazin-2(1H)-yl)-3-fluoropyrazolo[1,5-a]pyridine-7-carbonitrile]",IC50,human TLR7; [1],> 0.05 µM
same,IC50,human TLR8; [2],> 0.1 µM
"3-Fluoro-4-((4R,9S)-8-(2-((S)-3-fluoropyrrolidin-1-yl)-2-oxoethyl)-4,9-dimethyl-3,4,7,8,9,10-hexahydropyrido[3',4':3,4]pyrazolo[1,5-a]pyrazin-2(1H)-yl)pyrazolo[1,5-a]pyridine-7-carbonitrile [Example I-153]",IC50,human TLR7; [1],< 0.05 µM
same,IC50,human TLR8; [2],> 0.1 µM
"C[C@@H]1CN(c2ccc(C#N)n3ncc(F)c23)Cc2c3c(nn21)CN(CC(=O)N[C@H]1CNC[C@H]1F)[C@@H](C)C3 [Example I-106, 2-((4R,9S)-2-(7-cyano-3-fluoropyrazolo[1,5-a]pyridin-4-yl)-4,9-dimethyl-1,2,3,4,9,10-hexahydropyrido[3',4':3,4]pyrazolo[1,5-a]pyrazin-8(7H)-yl)-N-((3S,4R)-4-fluoropyrrolidin-3-yl)acetamide]",IC50,human TLR7; [1],< 0.05 µM
same,IC50,human TLR8; [2],< 0.1 µM
"C[C@@H]1CN(c2ccc(C#N)n3ncc(F)c23)Cc2c3c(nn21)CN(CC1(C(N)=O)CC1)[C@@H](C)C3 [Example I-204, 1-(((4R,9S)-2-(7-cyano-3-fluoropyrazolo [1,5-a]pyridin-4-yl)-4,9-dimethyl-1,2,3,4,9,10-hexahydropyrido[3',4':3,4]pyrazolo[1,5-a]pyrazin-8(7H)-yl)methyl)cyclopropane-1-carboxamide]",IC50,human TLR7; [1],< 0.05 µM
same,IC50,human TLR8; [2],> 0.1 µM
